Test results reported in patent publication US9284567B2, “Method for gene introduction into hordeum plant using agrobacterium, and method for production of transformed plant of hordeum plant” (JAPAN TOBACCO INC., priority 2010, dated 2016).

What was measured:
[1] = test system: scutellum of barley immature embryo; experiment: Gene introduction efficiency (GUS expression index) after coculture with Agrobacterium; format: cell-based, barley (variety: Golden Promise)
Procedure: Immature embryos (size: 1.5 to 2.0 mm) of barley (variety: Golden Promise) from which embryonic axes were removed were aseptically collected and were immersed in 1 mL of sterilized water in a 2-mL microtube. In order to enhance the gene introduction efficiency, the tube containing the immature embryos was heated in a water bath at 43° C. for 5 minutes. An Agrobacterium strain EHA101 having a hygromycin resistance gene (pIG121Hm) (Non-Patent Literature 2) was suspended in an MG/L liquid medium (Non-Patent Literature 28) containing 100 μM acetosyringone and was shake-cultured (180 rpm) at 28° C. overnight (about 20 hours) to prepare an inoculation source. The bacterial concentration was adjusted to an O.D. of 1.0 (660 nm). The inoculation source was added to the thermal-treated immature embryos, and a reduced pressure treatment was performed with a vacuum pump at 500 mbar for 10 minutes. The immature embryos were washed once with a callus induction liquid medium, CIMT (Tingay et al., 1997: Non-Patent Literature 5) not containing any plant growth regulator (hereinafter, antiauxins, cytokinins, and auxins are collectively referred to as plant growth regulators). The immature embryos inoculated with Agrobacterium were transplanted onto a barley coculture medium (1/10 diluted MS inorganic salts and MS vitamins, 10 g/L of glucose, 0.5 g/L of MES, 5 μM AgNO3, and 5 μM CuSO4, pH 5.8; and 8 g/L of agarose) containing 100 μM acetosyringone in such a manner that the scutellum side faces upward. The test was performed using two plant growth regulators in four test groups of the coculture medium. That is, the four test groups are a hormone-free test group not containing any plant growth regulator, a test group of 5 μM TIBA (antiauxin), a test group of 1.13 μM dicamba (auxin), and a test group of 11.3 μM dicamba (auxin).
Immature embryos cultured at 25° C. in the dark for 24 hours were transplanted in a CIMT resting medium (Tingay et al., 1997: Non-Patent Literature 5) containing 0.5 mg/L of 2,4-D and 1.25 mg/L of CuSO4.5H2O. The resting medium was added with 250 mg/L of carbenicillin and 100 mg/T, of cefotaxime for Agrobacterium eradication. […] The expression of the GUS gene in the scutellum region of each immature embryo was evaluated in seven grades: 87.5 (expressed in 75% or more of scutellum), 62.5 (expressed in 50% or more and less than 75% of scutellum), 37.5 (expressed in 25% or more and less than 50% of scutellum), 17.5 (expressed in 10% or more and less than 25% of scutellum), […] (expressed in 1% or more and less than 10% of scutellum), 0.5 (expressed in exceeding 0% and less than 1% of scutellum), and 0 (no expression), and the average value thereof was expressed by a numerical value as the GUS expression index. […]

barley immature embryos [2] = experiment: Transformation efficiency per immature embryo (hygromycin-resistant and GUS-positive regenerated plants); format: cell-based, barley (variety: Golden Promise)
Procedure: The preparation of materials and the inoculation with Agrobacterium were performed as in Example 1. The thermal treatment was also similarly performed.
Test group (1): Immature embryos inoculated with Agrobacterium were placed on the coculture medium described in Harwood et al. (2008: Non-Patent Literature 11) in such a manner that the scutellum faces downward. The coculture was performed at 25° C. in the dark for 3 days. In this test group, the centrifugation treatment was not performed.
Test group (2): Isolated immature embryos were transferred in a 2-mL microtube containing 1 mL of sterilized water and were centrifuged at 25° C. at 15000 rpm (20000×g) for 10 minutes. Subsequently, coculture was performed as in test group (1).
Test group (3): Immature embryos cocultured as in test group (1) were transferred in a 2-mL microtube containing 1 mL of sterilized water and were centrifuged at 25° C. at 15000 rpm (20000×g) for 10 minutes.
Test group (4): Immature embryos inoculated with Agrobacterium were transferred onto a barley coculture medium (1/10 diluted MS inorganic salts and MS vitamins, 10 g/L of glucose, 5 μM TIBA, 0.5 g/L of MES, 5 μM AgNO3, and 5 μM CuSO4, pH 5.8; and 8 g/L of agarose) containing 100 μM acetosyringone in such a manner that the scutellum side faces upward. The immature embryos were cultured at 25° C. in the dark for 24 hours. In this test group, the centrifugation treatment was not performed.
Test group (5): Isolated immature embryos were transferred in a 2-mL microtube containing 1 mL of sterilized water and were centrifuged at 25° C. at 15000 rpm (20000×g) for 10 minutes. Subsequently, coculture was performed as in test group (4).
Test group (6): Immature embryos cocultured as in test group (4) were transferred in a 2-mL microtube containing 1 mL of sterilized water and were centrifuged at 25° C. at 15000 rpm (20000×g) for 10 minutes.
That is, test groups (1), (2), and (3) used a coculture medium containing an auxin, dicamba, and undiluted MS inorganic salts, whereas test groups (4), (5), and (6) used a coculture medium containing an antiauxin, TIBA, and 1/10 diluted MS inorganic salts. Test group (7) used a hormone-free coculture medium containing 1/10 diluted MS inorganic salts.
The immature embryos prepared in test groups (1) to (7) were each transplanted in a CIMT resting medium (Tingay et al., 1997: Non-Patent Literature 5) containing 0.5 mg/L of 2,4-D, but not containing any selective agents. The resting medium was added with 250 mg/L of carbenicillin and 100 mg/L of cefotaxime for Agrobacterium eradication. The immature embryos were cultured at 25° C. in the dark for 7 days and were each divided into four sections. The divided sections were transplanted in a CIMT resting medium (Tingay et al., 1997: Non-Patent Literature 5) containing 0.2 mg/L of 2,4-D and 5 μM CuSO4, but not containing any selective agent. After the resting culture at 25° C. in the dark for 10 days, each four-divided immature embryo section was further divided into three to six subsections (i.e., one immature embryo was divided into 12 to 24 sections). The divided subsections were placed on a CIMT selection medium (Tingay et al., 1997: Non-Patent Literature 5) containing 0.1 mg/L of 2,4-D, 1.5 μM CuSO4, and 75 mg/L of hygromycin and were cultured at 25° C. in the dark for 10 days. Subsequently, subsections having cell clump supposed to be hygromycin resistance were subcultured in a selection medium having the same composition and were cultured at 25° C. in the dark for 10 days.
One hygromycin resistance callus for each divided section was placed on a transition (regeneration preculture) medium (Harwood et al. (2008: Non-Patent Literature 11)) not containing hygromycin and was cultured at 25° C. in the dark for about 2 weeks.

barley immature embryos [3] = experiment: Hygromycin resistance callus formation after secondary selection; format: cell-based, barley (variety: Golden Promise); details: Example 4, 5 μM TIBA in coculture medium
Procedure: The materials, the method of inoculation with Agrobacterium, the thermal treatment conditions, the coculture step, the centrifugation treatment conditions, and the resting step were the same as those in Example 3. The coculture medium contained an antiauxin: 5 μM TIBA. The scutellum was divided into four sections, and the resting step was further continued for 10 days. After the resting step, each divided scutellum section was further divided into 4 subsections (i.e., one immature embryo was divided into 16 sections). The divided subsections were transplanted in a CIMT selection medium (Tingay et al., 1997: Non-Patent Literature 5) containing 50 mg/L of hygromycin B and 1.25 mg/L of CuSO4.5H2O. The selection medium was added with 250 mg/L of carbenicillin for Agrobacterium eradication. Scutellum subsections were sorted by the original immature embryo and placed on the medium. After the culture at 25° C. in the dark for 2 weeks, only compact calli were selected by removing sponge-like calli containing a large amount of moisture. […] After the culture, hygromycin resistance compact calli propagated on the selection medium were counted. Note that even when a plurality of resistance calli were formed from scutellum subsections derived from a single immature embryo, only one of the resistance calli was counted as a hygromycin resistance callus for each immature embryo.

barley immature embryos [4] = experiment: Callus formation from cocultured immature embryos; format: cell-based; details: 0.25 mg/L (1.13 μM) in 1/10 diluted MS coculture medium, no centrifugation or pressurization

SMILES: O=C(O)c1cc(I)cc(I)c1I [TIBA, 2,3,5-triiodobenzoic acid]
- gene introduction efficiency (GUS expression index) ([1]; Example 1, FIG. 1, 5 μM in 1/10 diluted MS coculture medium, coculture 24 hours, versus plant growth regulator-free group): notably enhanced
- transformation efficiency per immature embryo (barley immature embryos [2]; test group 4: 5 μM TIBA, 1/10 diluted MS coculture medium, 24 hours, no centrifugation treatment): no transformant was obtained at all
- transformation efficiency per immature embryo (barley immature embryos [2]; test group 5: 5 μM TIBA, 1/10 diluted MS coculture medium, centrifugation treatment before inoculation with Agrobacterium): 90%
- transformation efficiency per immature embryo (barley immature embryos [2]; test group 6: 5 μM TIBA, 1/10 diluted MS coculture medium, centrifugation treatment after coculture): 100%
- frequency of hygromycin resistance callus formation from immature embryos (barley immature embryos [3]; with centrifugation treatment after coculture, after secondary selection): 80%
- frequency of hygromycin resistance callus formation from immature embryos (barley immature embryos [3]; without centrifugation treatment): no callus survived in the selection medium

SMILES: COc1c(Cl)ccc(Cl)c1C(=O)O [dicamba, 3,6-dichloro-2-methoxybenzoic acid]
- gene introduction efficiency (GUS expression index) ([1]; Example 1, FIG. 1, 11.3 μM in 1/10 diluted MS coculture medium, coculture 24 hours): lowest
- transformation efficiency per immature embryo (barley immature embryos [2]; test group 1: conventional coculture medium with dicamba, undiluted MS, coculture 3 days, without centrifugation treatment): 30%
- transformation efficiency per immature embryo (barley immature embryos [2]; test group 2: conventional coculture medium with dicamba, undiluted MS, centrifugation treatment before inoculation): no transformant was obtained at all
- transformation efficiency per immature embryo (barley immature embryos [2]; test group 3: conventional coculture medium with dicamba, undiluted MS, centrifugation treatment after coculture): 20%

SMILES: O=C(O)COc1ccc(Cl)cc1Cl [2,4-D, 2,4-dichlorophenoxyacetic acid]
- gene introduction efficiency relative to hormone-free coculture medium ([1]; Example 5, FIG. 3, 1.13 μM in 1/10 diluted MS coculture medium): about one-sixth that of the hormone-free coculture medium
- gene introduction efficiency (GUS expression index) ([1]; Example 5, FIG. 3, 11.3 μM in 1/10 diluted MS coculture medium): lowest
- callus formation from cocultured immature embryos (barley immature embryos [4]): almost no callus was formed
